Data from patent US10815212B2, “Cytotoxin compounds and methods of isolation” (priority 2004, dated 2020).

How the values were obtained:
[1] = test system: National Cancer Institute (NCI) 60 cell line panel
[2] = test system: National Cancer Institute (NCI) 60 cell line panel; experiment: cells; details: read-out: LC50
[3] = Field-based feeding-deterrent assays
[4] = test system: LOX IMVI; experiment: cells; details: Homo sapiens, read-out: LC50
[5] = test system: M14; experiment: cells; details: Homo sapiens, M14, read-out: LC50
[6] = test system: SK-MEL-5; experiment: cells; details: Homo sapiens, SK-MEL-5, read-out: LC50
[7] = test system: UACC-62
[8] = test system: HCC-2998; experiment: cells; details: Homo sapiens, HCC 2998, read-out: LC50
[9] = test system: RXF 393; experiment: cells; details: Homo sapiens, RXF 393, read-out: LC50

CC(C)=CC(=O)N/C=C/C(C)=C/C(C)C1C/C(C)=C/C=C/CCC(OC(N)=O)C(O)/C=C/C(O)CCC/C=C/C(=O)O1 (stereo not shown) [Palmerolide A]
selectivity index among tested cell lines ([1]; most sensitive cells relative to other cell lines tested): 10^3 | CC50 [2]: > 10 µM | bioactivity in field-based feeding-deterrent assays [3]: displayed bioactivity | CC50 [4]: 9.8 µM | CC50 [5]: 0.076 µM | CC50 [6]: 6.8 µM | cytotoxicity (in words) [7]: displays cytotoxicity | CC50 [8]: 6.5 µM | CC50 [9]: 6.5 µM

CC(C)=CC(=O)N/C=C/C(C)=C/C(C)C1C/C(C)=C/C=C/CCCC(OC(N)=O)C(O)C(O)/C=C/CC/C=C/C(=O)O1 (stereo not shown) [Palmerolide C]
bioactivity in field-based feeding-deterrent assays [3]: displayed bioactivity

C=C(C)C/C(C)=C\C(=O)N/C=C/C(C)=C/C(C)C1C/C(C)=C/C=C/CCC(OC(N)=O)C(O)/C=C/C(O)CCC/C=C/C(=O)O1 (stereo not shown) [Palmerolide D]
bioactivity in field-based feeding-deterrent assays [3]: displayed bioactivity

C/C(C=O)=C\C(C)C1C/C(C)=C/C=C/CCC(OC(N)=O)C(O)/C=C/C(O)CCC/C=C/C(=O)O1 (stereo not shown) [Palmerolide E]
activity/potency relative to palmerolide A (in words) ([1]; NCI 60 cell line bioassay): reduced activity | bioactivity in field-based feeding-deterrent assays [3]: displayed bioactivity
